This is an account of results in patent US8889878B2, “Haloalky-substituted amides as insecticides and acaricides” (Bayer CropScience AG, priority 2009, dated 2014).

As usually defined, the chromatographic logP is a lipophilicity value derived from retention on a column. Read a high chromatographic logP as higher lipophilicity.

Structures are written as SMILES.

Data set [1] is described as follows: logP by HPLC on reverse-phase column (EEC Directive 79/831 Annex V.A8). In kind it is physicochemical. Conditions: for chromatographic logP: reverse-phase C18 HPLC column. On the procedure: The logP values reported in the above Tables and Preparation Examples were determined according to EEC Directive 79/831 Annex V.A8 by HPLC (High Performance Liquid Chromatography) on a reverse-phase column (C18). Temperature 43° C.

Data set [2] concerns armyworm (Spodoptera frugiperda). In words: Spodoptera frugiperda test (SPODFR spray treatment), Example 15. In kind it is in vivo. Conditions: application rate 100 g/ha, maize leaf discs sprayed, after 7 days. On the procedure:
Spodoptera frugiperda Test (SPODFR Spray Treatment)
• Solvent: 78.0 parts by weight of acetone • 1.5 parts by weight of dimethylformamide • Emulsifier: 0.5 part by weight of alkylaryl polyglycol ether
To prepare an appropriate active ingredient formulation, 1 part by weight of active ingredient is mixed with the stated amounts of solvent and emulsifier, and the concentrate is diluted with emulsifier-containing water to the desired concentration. Leaf discs from maize (Zea mays) are sprayed with an active ingredient formulation of the desired concentration and, after drying, populated with caterpillars of the armyworm (Spodoptera frugiperda).
After 7 days, the efficacy in % is determined. 100% means that all caterpillars were killed; 0% means that no caterpillars were killed.

Setting [3] is: HPLC-MS, HPLC on reverse-phase column.
[4] abbreviates: HPLC, C18 reverse phase, 43° C., acidic range pH 2.7, calibration with alkan-2-ones.
[5] abbreviates: pH 2.7, HPLC, C18 reverse phase, 43° C., acidic range pH 2.7, calibration with alkan-2-ones.

Turning to `C#CC(C)(C)NC(=O)c1ccc(/C=C/C(=O)NC(c2cccc(C(F)(F)F)c2)C(F)(F)F)cc1Cl` (racemic) [Ia-196], the logP entry in data set [1] (HPLC-MS) is recorded as “HPLC-MS: logP = 3.64; mass”. In data set [2], this compound came in with an efficacy in % of 83%. With `N#Cc1cnn(-c2ccc(/C=C/C(=O)NC(c3cccc(C(F)(F)F)c3)C(F)(F)F)cc2Cl)c1` (racemic) [Ia-200], in data set [1] (HPLC-MS), the logP result was “HPLC-MS: logP = 3.83; mass”. In data set [2], the efficacy in % turned out to be 100%. Take `O=C(/C=C/c1ccc(C(=O)Nc2ccc(F)cn2)c(Cl)c1)NC(c1cccc(C(F)(F)F)c1)C(F)(F)F` (racemic) [Ia-203]: in data set [1] (HPLC-MS), the logP entry is recorded as “HPLC-MS: logP = 3.84; mass”. The efficacy in % in data set [2] is on record as 100%. The like results for `O=C(/C=C/c1ccc(C(=O)Nc2ccc([N+](=O)[O-])cn2)c(Cl)c1)NC(c1cccc(C(F)(F)F)c1)C(F)(F)F` (racemic) [Ia-204] were, in that order, “HPLC-MS: logP = 3.95; mass” and 100%. On the same counts, the results for `N#Cc1ccc(NC(=O)c2ccc(/C=C/C(=O)NC(c3cccc(C(F)(F)F)c3)C(F)(F)F)cc2Cl)nc1` (racemic) [Ia-205] are “HPLC-MS: logP = 3.72; mass” and 100%. Regarding `CC(=O)NCc1ccc(/C=C/C(=O)NC(c2cccc(C(F)(F)F)c2)C(F)(F)F)cc1C` (centres unmarked) [Ia-249], in data set [1] (HPLC-MS), the logP result was “HPLC-MS: logP = 2.9; mass”.

In the case of `Cc1cccnc1NC(=O)c1ccc(/C=C/C(=O)NC(c2cccc(C(F)(F)F)c2)C(F)(F)F)cc1C(F)(F)F` (centres unmarked) [Ia-255], the logP entry in data set [1] (HPLC-MS) is reported as “HPLC-MS: logP = 3.19; mass”. `CC1CC1NC(=O)c1ccc(C=CC(=O)NC(c2cccc(C(F)(F)F)c2)C(F)(F)F)cc1C(F)(F)F` (centres unmarked) [Ia-261]: in data set [1] (setting [3]), the logP entry is on record as “HPLC-MS: logP = 3.46; mass”. On the same count and under the same terms, with `O=C(/C=C/c1ccc(C(=O)NCC(=O)NCC(F)(F)F)c(C(F)(F)F)c1)NC(c1cccc(C(F)(F)F)c1)C(F)(F)F` (centres unmarked) [Ia-262] the entry was “HPLC-MS: logP = 3.11; mass”. With `O=C(/C=C/c1ccc(CNc2ccccn2)c(C(F)(F)F)c1)NC(c1cccc(C(F)(F)F)c1)C(F)(F)F` (centres unmarked) [Ia-263], the logP result in data set [1] (setting [3]) is “HPLC-MS: logP = 2.2; mass”.

Consider `O=C(/C=C/c1ccc(CNc2cc(Cl)ccn2)cc1)NC(c1cccc(C(F)(F)F)c1)C(F)(F)F` (centres unmarked) [Ia-265], for which, in data set [1] (setting [3]), the logP result is given as “HPLC-MS: logP = 3.15; mass”. On the same count and under the same terms, as for `O=C(/C=C/c1ccc(CNC(=O)c2ccsc2)c(C(F)(F)F)c1)NC(c1cccc(C(F)(F)F)c1)C(F)(F)F` (centres unmarked) [Ia-268], the entry is “HPLC-MS: logP = 3.92; mass”; as for `O=C(/C=C/c1ccc(CNC(=O)C2COC(=O)C2)c(C(F)(F)F)c1)NC(c1cccc(C(F)(F)F)c1)C(F)(F)F` (centres unmarked) [Ia-269], “HPLC-MS: logP = 3.34; mass”. Regarding `O=C(/C=C/c1ccc(C(=O)NC2CC2)c(C(F)(F)F)c1)NC(c1cc(Cl)c(Cl)c(Cl)c1)C(F)(F)F` (centres unmarked) [Ia-283], the logP entry in data set [1] (setting [3]) is given as “HPLC-MS: logP = 4.1; mass”. With `O=C(/C=C/c1ccc(C(=O)NCc2ccccc2)c(C(F)(F)F)c1)NC(c1ccncc1)C(F)(F)F` (centres unmarked) [Ib-1], the logP result in data set [1] (setting [4]) is “HPLC-MS: logP = 3.02 mass (m/z):”. Consider `N#Cc1ccc2cc(C(=O)NC(c3cccc(C(F)(F)F)c3)C(F)(F)F)oc2c1` (centres unmarked) [Ic-3], for which, in data set [1] (setting [4]), the logP entry was “HPLC-MS: logP = 3.72; mass”. Still for that read-out and setting: with `N#Cc1ccc2oc(C(=O)NC(c3ccc(Cl)c(Cl)c3)C(F)(F)F)cc2c1` (centres unmarked) [Ic-5] the entry was “HPLC-MS: logP = 3.95; mass”; with `NC(=O)c1ccc2oc(C(=O)NC(c3cccc(C(F)(F)F)c3)C(F)(F)F)cc2c1` (centres unmarked) [Ic-6], “HPLC-MS: logP = 2.69; mass”; with `N#Cc1ccc2oc(C(=O)NC(c3ccc(Cl)cc3Cl)C(F)(F)F)cc2c1` (centres unmarked) [Ic-7], “HPLC-MS: logP = 4.04; mass”. For the compound `N#Cc1ccc2cc(C(=O)NC(c3cccc(C(F)(F)F)c3)C(F)(F)F)[nH]c2c1` (centres unmarked) [Ic-8], the logP entry in data set [1] (setting [4]) is listed as “HPLC-MS: logP = 3.51; mass”.

Take `CS(=O)(=O)c1ccc2[nH]c(C(=O)NC(c3cccc(C(F)(F)F)c3)C(F)(F)F)cc2c1` (centres unmarked) [Ic-9]: the logP entry in data set [1] (setting [4]) is “HPLC-MS: logP = 2.92; mass”. For the compound `C=CCC(=O)NCc1ccc2oc(C(=O)NC(c3cccc(C(F)(F)F)c3)C(F)(F)F)cc2c1` (centres unmarked) [Ic-13], the logP entry in data set [1] (setting [4]) is “HPLC-MS: logP = 3.24; mass”.

Take `CCC(=O)NCc1ccc2oc(C(=O)NC(c3cccc(C(F)(F)F)c3)C(F)(F)F)cc2c1` (centres unmarked) [Ic-14]: in data set [1] (setting [4]), the logP entry is on record as “HPLC-MS: logP = 3.09; mass”. On to `NC(=O)c1cc2cc(C(=O)NC(c3cccc(C(F)(F)F)c3)C(F)(F)F)oc2cc1F` (centres unmarked) [Ic-16], for which the logP entry in data set [1] (setting [4]) is recorded as “HPLC-MS: logP = 2.88; mass”. For `O=C(NC(c1cccc(C(F)(F)F)c1)C(F)(F)F)c1cc2cc(S(=O)(=O)C(F)(F)F)ccc2[nH]1` (centres unmarked) [Ic-17], the logP result in data set [1] (setting [4]) is recorded as “HPLC-MS: logP = 4.19; mass”.

Turning to `Cn1c(C(=O)NC(c2cccc(C(F)(F)F)c2)C(F)(F)F)cc2cc(Cl)c(C(=O)NC3CC3)cc21` (centres unmarked) [Ic-48], the logP entry in data set [1] (setting [4]) was “HPLC-MS: logP = 3.33; mass”.

Take `O=C(/C=C/c1ccc(C(=O)NC2CC2)c(C(F)(F)F)c1)NC(c1cccc(F)c1)C(F)F` (centres unmarked) [Id-2]: the logP entry in data set [1] (setting [4]) was “HPLC-MS: logP = 2.68; mass”.

On to `O=C(/C=C/c1ccc(C(=O)NC2CC2)c(C(F)(F)F)c1)NC(c1cccc(Cl)c1)C(F)F` (centres unmarked) [Id-3], for which the logP entry in data set [1] (setting [4]) is listed as “HPLC-MS: logP = 2.92; mass”. The compound `CC(NC(=O)CC1CC1)c1ccc(/C=C/C(=O)NC(c2cccc(C(F)(F)F)c2)C(F)(F)F)nc1` (centres unmarked) [If-3] registered an efficacy in % in data set [2] of 100%. With `O=C(NCc1ccccc1)c1ccc(Br)cc1C(F)(F)F` [N-Benzyl-4-bromo-2-(trifluoromethyl)benzamide], in data set [1] (setting [5]), the chromatographic logP is 2.89. Still for that read-out and setting: with `O=C(NC1CC1)c1cnc(I)cc1C(F)(F)F` [N-Cyclopropyl-6-iodo-4-(trifluoromethyl)nicotinamide] the figure was 1.92.

In turn, `CCC(=O)NC(C)c1ccc(Br)cc1F` (centres unmarked) [N-[1-(4-Bromo-2-fluorophenyl)ethyl]propanamide] displayed a chromatographic logP in data set [1] (setting [5]) of 2.19. Take `FC(F)(F)c1cc(Br)ccc1CNc1ccccn1` [N-[4-Bromo-2-(trifluoromethyl)benzyl]pyridin-2-amine]: the chromatographic logP in data set [1] (setting [5]) worked out at 1.57. The same measure, in the same setting: as for `C=CC(=O)NC(c1cccc(C(F)(F)F)c1)C(F)(F)F` (centres unmarked) [N-{2,2,2-Trifluoro-1-[3-(trifluoromethyl)phenyl]ethyl}acrylamide], the figure is 2.75; as for `CC(C)(C)OC(=O)c1ccc(C=O)c(O)c1` [tert-Butyl 4-formyl-3-hydroxybenzoate], 3.11; as for `CC(C)(C)OC(=O)NCc1ccc(Br)cc1C(F)(F)F` [tert-Butyl [4-bromo-2-(trifluoromethyl)benzyl]carbamate], 4.13. In data set [1] (setting [4]), `CC(C)(C)OC(=O)NCc1ccc(/C=C/C(=O)NC(c2cccc(C(F)(F)F)c2)C(F)(F)F)cc1C(F)(F)F` (centres unmarked) [tert-Butyl {4-[1E)-3-oxo-3-({2,2,2-trifluoro-1-[3-(trifluoromethyl)phenyl]ethyl}amino)prop-1-en-1-yl]-2-(trifluoromethyl)benzyl}carbamate] returned a chromatographic logP of 4.4.

In data set [1] (setting [5]), `CC(C)(C)OC(=O)NC1CCc2cc(/C=C/C(=O)NC(c3cccc(C(F)(F)F)c3)C(F)(F)F)ccc21` (centres unmarked) [tert-Butyl {5-[(1E)-3-oxo-3-({2,2,2-trifluoro-1-[3-(trifluoromethyl)phenyl]ethyl}amino)prop-1-en-1-yl]-2,3-dihydro-1H-inden-1-yl}carbamate] yielded a chromatographic logP of 4.44. With `NC(c1cc(F)cc(C(F)(F)F)c1)C(F)(F)F` (stereo not drawn) [α,3-Bis(trifluoromethyl)-5-fluorobenzenemethanamine], the chromatographic logP in data set [1] (setting [5]) was 2.51.
